Converted amounts (≈) assume the structure as drawn. Non-standard residues stand in square brackets, D forms with d. Residues, ends and D or L forms follow the SMILES beside them. NMeY = CN[C@@H](Cc1ccc(O)cc1)C(=O)O; dNMeF = CN[C@H](Cc1ccccc1)C(=O)O; Sar = CNCC(=O)O
Assay: physchem
Details: aqueous

CC[C@H](C)[C@@H]1NC(=O)[C@H](Cc2ccc(O)cc2)N(C)C(=O)[C@H](Cc2ccccc2)NC(=O)CN(C)C(=O)[C@@H]2CCCN2C(=O)[C@@H](Cc2ccccc2)N(C)C(=O)[C@H](CC(C)C)NC1=O [Compound 1, cordyheptapeptide A] (cyclo(F[NMeY]IL[dNMeF]P[Sar]))
solubility: 3.9 µM (≈ 3.43 µg/mL)

Reference: PMC8545353 (ACS chemical biology, 2021)
